Common to all, as to assay type: in vivo
Assay [1] has as its system human subjects with CVD, specifically stable coronary artery disease. The assay is described as follows: Serum lipid levels in humans, A-002 twice a day for eight weeks (Example 4). The procedure: 204 human subjects from the United States with CVD, specifically stable coronary artery disease, were randomized to receive placebo or A-002 via oral administration twice a day over an eight week administration period at dosages of 50 mg, 100 mg, 250 mg, or 500 mg. Levels of various lipids and inflammatory markers were measured at the outset of the trial and at the end of weeks four and/or eight. For data sets with a normal distribution, mean levels of lipids or inflammatory markers were analyzed. For data sets with non-normal distribution, median levels were analyzed. […] In addition, administration of A-002 decreased median levels of CRP (Table 11).
The combined effect of A-002 and statin administration on LDL levels was tested in a population of 332 subjects. This population consisted of the original 204 United States subjects, plus an additional 128 subjects from the Ukraine with stable CAD that received placebo or A-002 based according to the same protocol as the United States subjects. […] Similarly, A-002 decreased LDL levels in subjects receiving a variety of non-statin compounds used in the treatment of CVD, including ezetimibe, AEGR-733/ezetimibe, colesevelam hydrochloride (WelChol®), MK-0524A (Cordaptive®), lisinopril/MC-1 antibody (MC-4232), and Angiotensin Receptor Blocker (ARB)/MC-1 (MC-4262).

Assay [2] concerns ApoE−/− mice. Briefly: Plasma total cholesterol and HDL levels in ApoE−/− mice, A-002 and/or statin (Example 3). The settings on record: 0.02 g/kg pravastatin in diet alone, 12 weeks. Here is the method: (§1) Body weight, plasma total cholesterol, and plasma HDL levels were measured for six groups of twelve ApoE^−/− mice. The mice were then placed on a high fat diet for twelve weeks to allow for formation of significant fatty atherosclerotic plaques. The high fat diet was a modified version of the Western diet (TD.88137, Harlan Teklad, Madison, Wis.) consisting of casein (195 g/kg), DL-methionine (3 g/kg), sucrose (341.44 g/kg), corn starch (150 g/kg), anhydrous milkfat (210 g/kg), cholesterol (1.5 g/kg), cellulose (50 g/kg), mineral mix AlN-76 (Teklad; 35 g/kg), calcium carbonate (4 g/kg), vitamin mix (Teklad #40060; 10 g/kg), ethyoxyquin (antioxidant, 0.04 g/kg), and either 0.0156 g/kg (“low dose”) A-002 (Group A), 1.56 g/kg (“high dose”) A-002 (Group B), 0.02 g/kg pravastatin (Group C), low dose A-002 plus 0.02 g/kg pravastatin (Group D), high dose A-002 plus 0.02 g/kg pravastatin (Group E), or vehicle only (Group F). Mice were administered diets A-F in a blinded manner, and food was provided ad libitum. The diet was initially prepared based on the assumption that each mouse weighed 22.5 g and ate 4.5 g/day. Based on body weight and food consumption, the diet was modified over the 12 week course of treatment to adjust for a body weight of 26 g and a food intake of 2.5 g/day. The dosages of A-002 were selected to cover a range of 100-fold based on pharmacokinetics in ApoE^−/− mice as well as toxicology and previously observed efficacy in this model.
Plasma total cholesterol and HDL levels were measured. Mean levels of total cholesterol were decreased in mice administered A-002 alone or in combination with statin (Table 3, FIG. 6). […] Mean levels of HDL were increased in mice administered A-002 at either dosage (Table 4). This increase was greater in mice administered high dose A-002 plus statin than in mice administered high dose A-002 or statin alone (Table 4 compare Group E vs. Groups B and C; FIG. 7).

Assay [3] concerns ApoE−/− mice. The assay is described as follows: En face lesion size in ApoE−/− mice on high fat diet, A-002 and/or statin (Example 3). Conditions: 0.02 g/kg pravastatin in diet alone, 12 weeks. Here is the method: as §1
After twelve weeks, mice were sacrificed and plasma, heart tissue, and aortic tissue were collected. En face lesion size was determined via digital imaging analysis. Plaque content (as measured as en face lesion) was reduced in mice administered A-002 alone, statin alone, or A-002 in combination with statin. The reduction in plaque content in mice administered A-002 plus statin was substantially greater than the reduction in mice administered either compound alone (Table 2, compare Group D vs. Groups A and C; Group E vs. Groups B and C). Further, the reduction in plaque content in mice administered A-002 plus statin was substantially greater than the sum of the reduction in plaque content in mice administered A-002 alone and mice administered statin alone.

Setting [4] is: summary Table 20, A-002 alone, statin alone or A-002 plus statin.

The source of these data is patent US8048880B2, “Treatment of cardiovascular disease and dyslipidemia using secretory phospholipase A2 (SPLA2) inhibitors and SPLA2 inhibitor combination therapies” (Anthera Pharmaceuticals, Inc., priority 2007, dated 2011).

`O=C1[C@H](CC[C@H](O)c2ccc(F)cc2)[C@@H](c2ccc(O)cc2)N1c1ccc(F)cc1` [ezetimibe, reference compound]: the “Observed change following administration: Mean serum [LDL] at week 8” value in assay [1] (summary Table 22, A-002 alone, ezetimibe alone or A-002 plus ezetimibe) is on record as −1.7%.
For `CC[C@H](C)C(=O)O[C@H]1C[C@H](O)C=C2C=C[C@H](C)[C@H](CC[C@@H](O)C[C@@H](O)CC(=O)O)[C@H]21` [Statin, pravastatin, reference compound], in the assay with ApoE−/− mice [2], the “Mean HDL concentration” value is 14.500 mg/dL and the “Mean total cholesterol concentration” value turned out to be 1405.417 mg/dL. Besides, the “increase of mean serum small LDL particle levels” value in assay [1] (at eight weeks, United States population, statin alone (Table 14)) came out at 13.26%. For the same compound, the “decrease of mean serum LDL levels” value in assay [1] (at eight weeks, United States subjects with baseline LDL of 72 mg/dl or greater, text restating Tables 15 and 19) was 4.40%. In addition, the “decrease of mean serum LDL levels” value in assay [1] (at week eight, combined United States and Ukraine populations, Tables 16 and 18) is reported as 2.15%. Further, the “decrease of mean serum LDL levels” value in assay [1] (at week four, combined United States and Ukraine populations, Tables 16 and 18) is listed as 3.36%. For the same compound, in assay [1] (setting [4]), the “Observed change following administration: Mean serum [LDL] at week 4” value is −3.36%, the “Observed change following administration: Mean serum [LDL] at week 8” value was −2.15%, the “Observed change following administration: Mean serum [LDL] in ≧72 mg/dl subpopulation at week 8” value is listed as −4.40% and the “Observed change following administration: Mean serum [small LDL particle] at week 8” value was “+13.26%”. For the same compound, in the assay with ApoE−/− mice [3], the “Change in mean % en face lesion vs. control” value is reported as −0.813% and the “Mean % en face lesion” value was 4.814%.
